# Values of other authors as cited in patent publication US10149821B2, “Orosoluble and/or effervescent compositions containing at least a salt of S-adenosyl methionine (SAMe)” (priority 2009, dated 2018).
# How the values were obtained:
# [1] = not given; remark: listed apart in the source
# [2] = oral intake, SAMe radiolabeled on the carbon of the methyl group
# [3] = temperatures above 0° C.
smiles,measurement,setting,value
"C[S+](CC[C@H](N)C(=O)O)C[C@H]1O[C@@H](n2cnc3c(N)ncnc32)[C@H](O)[C@@H]1O (some centres unmarked) [SAMe, S-adenosyl methionine]","plasma levels of the non-modified molecule, % of the administered dose","oral intake, swallowable gastro-protected tablets",5-10%
same,"plasma bioavailability, % of the administered dose",parenteral administration (endovenous or intramuscular),90-100%
same,half-life in the liver,[1],about 5 minutes
same,"hepatic metabolism, % of the administered radioactivity",[2],about 60%
same,stability,[3],very unstable
